Results taken from patent US4022832A, “2-Aminoacetamido-α-phenylbenzylideneaminoalkanol derivatives and process for the preparation thereof” (Sankyo Company Limited, priority 1975, dated 1977).

What was measured:
Assay type in all cases: in vivo
mice [1] = assay: Anti-electroshock convulsant effect; details: Mus musculus, po, P.O., 1 hour before electroshock (1000V, 12.5mA, 0.2sec.) through both corneas, Litchfield and Wilcoxon
Description: (2) Anti-electroshock convulsant effect
One hour after oral administration of the test compound, an electroshock (1000V, 12.5mA, 0.2sec.) is applied through both corneas and anti-convulsant activity of the compound is observed.
(§1) (4) Calculation of ED50 values
(§2) The values are calculated according to the method of Litchfield and Wilcoxon [J. Pharmcol. Exp. Therap., 96, 99 (1949)].

mice [2] = assay: Anti-bemegride convulsant effect; details: Mus musculus, po, P.O., 1 hour before 30mg/kg bemegride s.c., observed for 30 minutes, Litchfield and Wilcoxon
Description: (1) Anti-bemegride convulsant effect
One hour after oral administration of the test compound, 30mg/kg of bemegride is subcutaneously injected and the anti-convulsant activity of the compound is observed for 30 minutes.
as §1, §2

mice [3] = assay: Potentiation of anesthesia (thiopental); details: Mus musculus, po, P.O., 1 hour before 30mg/kg thiopental i.v., dose prolonging loss of righting reflex twice that of thiopental only, Litchfield and Wilcoxon
Description: (3) Potentiation of anesthesia
One hour after oral administration of the test compound, 30mg/kg of thiopental is intravenously injected, and the dose is determined which prolongs the duration of loss of the righting reflex twice that of the group administered only with thiopental.
as §1, §2

Row | SMILES | ED50 (mice [1]) [mg/kg] | ED50 (mice [2]) [mg/kg] | ED50 (mice [3]) [mg/kg]
1 | CNC1=Nc2ccc(Cl)cc2C(c2ccccc2)=[N+]([O-])C1 [Chlordiazepoxide] | 27 | 2.7 | 12
2 | NCC(=O)Nc1ccc(Br)cc1C(=NCCO)c1ccccc1F [2-{[2-Aminoacetamido-5-bromo-α -(2-fluorophenyl)benzylidene]amino}ethanol] | 8 | 0.31 | 2.9
